# Read-outs that look alike come from different tables or passages of the source. Ends that are not written are not given here.
# Key:
# [1] = test system: Quiescent EX cells; assay: Stimulation of DNA synthesis by mitogens in quiescent EX cells; type: cell-based, human; conditions: [3H]thymidine 16-32 h after stimulation, vs serum-free control; 20% FCS, IGF-1 25 ng/ml, EGF and bFGF 100 ng/ml, TGF-beta 10 ng/ml, AII and ET-1 100 nM
# Method: Quiescent EX cells were then exposed to various mitogens, and stimulation of DNA synthesis was determined by incorporation of [^3H]thymidine 16-32 h after stimulation. DNA synthesis was stimulated by 20% FCS by 8.0±1.5 fold, compared to control cells that remained in serum-free D-MEM throughout. PDGF-BB and PDGF-AA caused a ≈ 3.0 fold stimulation of DNA synthesis. Insulin-like growth factor (IGF-1; 25 ng/ml) provided a 1.2 fold stimulation.
# [2] = test system: Quiescent ED cells; assay: Stimulation of DNA synthesis by mitogens in quiescent ED cells; type: cell-based, human; conditions: [3H]thymidine 16-40 h after stimulation, vs serum-free control; 20% FCS
# Method: Quiescent ED cells were exposed to various mitogens, and stimulation of DNA synthesis was determined by [^3H]thymidine incorporation 16-40 h after stimulation. DNA synthesis was stimulated by 20% FCS by 25±6 fold, compared to control cells that remained in serum-free D-MEM throughout. PDGF-BB stimulated ≈3.0 fold, but PDGF-AA stimulated only 2.0 fold.
# [3] = test system: B054 cells (baboon smooth muscle cells); assay: cells; type: cell-based; conditions: for minimal effective concentration: Papio anubis
# [4] = test system: B054 cells (baboon smooth muscle cells); assay: cells; type: cell-based; conditions: Papio anubis, read-out: minimum effective dose (MED), protein synthesis assay
# [5] = test system: Vascular smooth muscle cells
molecule,measurement,setting,value
"CC[C@H](C)[C@H](NC(=O)[C@H](Cc1ccc(O)cc1)NC(=O)[C@@H](NC(=O)[C@H](CCCNC(=N)N)NC(=O)[C@@H](N)CC(=O)O)C(C)C)C(=O)N[C@@H](Cc1cnc[nH]1)C(=O)N1CCC[C@H]1C(=O)N[C@@H](Cc1ccccc1)C(=O)O [AII, angiotensin II]",stimulation of DNA synthesis,[1],did not significantly stimulate DNA synthesis
same,stimulation of DNA synthesis,[2],did not stimulate DNA synthesis
CC(=O)O[C@@H]1/C=C\[C@@](C)(O)C(=O)[C@@H](C)C/C=C\[C@H]2[C@H](O)C(C)=C(C)[C@H]3C(Cc4ccccc4)NC(=O)[C@]132 (stereo partly shown) [cytochalasin C],"minimum effective dose (MED), DNA synthesis assay",[3],0.01 µg/mL
CN[C@@H]1C[C@H]2O[C@@](C)([C@@H]1OC)n1c3ccccc3c3c4c(c5c6ccccc6n2c5c31)C(=O)NC4 [staurosporin],minimal effective concentration,[4]; 5 min,0.1 µg/mL
same,minimal effective concentration,[4]; 24 h,0.01 µg/mL
same,minimal effective concentration,"[3]; 5 min, read-out: minimum effective dose (MED), DNA assay",0.001 µg/mL
same,minimal effective concentration,"[3]; 24 h, read-out: minimum effective dose (MED), DNA synthesis assay",0.001 µg/mL
same,cytotoxicity grade,[5],2
"endothelin-1 (CSCSSLMDKECVYFCHLDIIW; ends and bridges not checked; cysteine pairing not given here; UniProt P05305 53-73, looked up) [ET-1]",stimulation of DNA synthesis,[1],did not significantly stimulate DNA synthesis
same,stimulation of DNA synthesis,[2],did not stimulate DNA synthesis

# — patent publication EP1510220B1 (priority 1993, dated 1994)
